The record followed here is patent publication US8114867B2, “Oxazolidinone antibiotic derivatives” (Actelion Pharmaceuticals Ltd, priority 2007, dated 2012).

Converted amounts (≈) assume the structure as drawn. Some results are limits rather than exact numbers.

The assay relates to S. aureus 29213. Put plainly: MIC by broth microdilution (NCCLS), S. aureus 29213. As to conditions: strain S. aureus 29213, cation-adjusted Mueller-Hinton Broth, pH 7.2-7.3; for MIC: Staphylococcus aureus. The assay is classed as cell-based. The protocol: These assays have been performed following the description given in “Methods for dilution Antimicrobial Susceptibility Tests for Bacteria that Grow Aerobically, 4th ed.; Approved standard: NCCLS Document M7-A4; National Committee for Clinical Laboratory Standards: Villanova, Pa., USA, 1997”. Minimal inhibitory concentrations (MICs; mg/l) were determined in cation-adjusted Mueller-Hinton Broth (BBL) by a microdilution method following NCCLS guidelines (National Committee for Clinical Laboratory Standards. Methods for Dilution Antimicrobial Susceptibility). The pH of the test medium was 7.2-7.3.
A general note: Dilution methods test growth across graded concentrations, often in twofold steps.

For “6-((RS)-5-{[(2R,3R)-2,3-dihydroxy-3-(6-methoxy-[1,5]naphthyridin-4-yl)-propylamino]-methyl}-2-oxo-oxazolidin-3-yl)-4H-benzo[1,4]thiazin-3-one and 6-((RS)-5-{[(2S,3S)-2,3-dihydroxy-3-(6-methoxy-[1,5]naphthyridin-4-yl)-propylamino]-methyl}-2-oxo-oxazolidin-3-yl)-4H-benzo[1,4]thiazin-3-one [Example 52]”, the “MIC S. aureus 29213” value turned out to be 0.25 µg/mL. As for `COc1ccc2nccc(CC(N)CNC[C@@H]3CN(c4ccc5c(c4)NC(=O)CS5)C(=O)O3)c2n1` (mixture of isomers) [Example 89, 6-((R)-5-{[(2RS)-2-amino-3-(6-methoxy-[1,5]naphthyridin-4-yl)-propylamino]-methyl}-2-oxo-oxazolidin-3-yl)-4H-benzo[1,4]thiazin-3-one], the lowest concentration to inhibit growth (MIC) was 0.125 µg/mL. In the case of `COc1ccc2ncc(F)c(CN(CCCC3CN(c4ccc5c(c4)NC(=O)CS5)C(=O)O3)C[C@@H](O)CCl)c2n1` (mixture of isomers) [Example 152, 6-((RS)-5-{3-[((R)-3-chloro-2-hydroxy-propyl)-(3-fluoro-6-methoxy-[1,5]naphthyridin-4-ylmethyl)-amino]-propyl}-2-oxo-oxazolidin-3-yl)-4H-benzo[1,4]thiazin-3-one], the MIC – broadly, the lowest concentration found to suppress growth – was at most 0.063 µg/mL. On the same count and under the same terms, for `COc1ccc2nccc(C(=O)CCCCC3CN(c4ccc5c(c4)OCCO5)C(=O)O3)c2n1` (racemic) [Example 63, rac-3-(2,3-dihydro-benzo[1,4]dioxin-6-yl)-5-[5-(6-methoxy-[1,5]naphthyridin-4-yl)-5-oxo-pentyl]-oxazolidin-2-one] the value was at most 0.063 µg/mL; for `COc1ccc2nccc(CCNCCC3CN(c4ccc5c(c4)OCCO5)C(=O)O3)c2n1` (racemic) [Example 72, (rac)-3-(2,3-dihydro-benzo[1,4]dioxin-6-yl)-5-{2-[2-(6-methoxy-[1,5]naphthyridin-4-yl)-ethylamino]-ethyl}-oxazolidin-2-one], at most 0.063 µg/mL.

As for `COc1cnc2cccc(CN(C)C(=O)CCC3CN(c4ccc5c(c4)OCCO5)C(=O)O3)c2n1` (racemic) [Example 110, rac-3-[3-(2,3-dihydro-benzo[1,4]dioxin-6-yl)-2-oxo-oxazolidin-5-yl]-N-(3-methoxy-quinoxalin-5-ylmethyl)-N-methyl-propionamide], the minimum inhibitory concentration (MIC) was at most 0.063 µg/mL. On the same count and under the same terms, as for `COc1ccc2nccc(CC[C@@H](N)CC[C@@H]3CN(c4ccc5c(c4)OCCO5)C(=O)O3)c2n1` (racemic) [Example 116, (RS)-5-[(RS)-3-amino-5-(6-methoxy-[1,5]naphthyridin-4-yl)-pentyl]-3-(2,3-dihydro-benzo[1,4]dioxin-6-yl)-oxazolidin-2-one], the figure is at most 0.063 µg/mL. Same read-out and setting: as for `COc1ccc2nccc(COCCCC3CN(c4ccc5c(c4)OCCO5)C(=O)O3)c2c1` (racemic) [Example 120, rac-3-(2,3-dihydro-benzo[1,4]dioxin-6-yl)-5-[3-(6-methoxy-quinolin-4-ylmethoxy)-propyl]-oxazolidin-2-one], the figure is 0.125 µg/mL (≈ 0.277 µM). On the same count and under the same terms, for `COc1ccc2nccc(CC[C@@H](O)CC[C@@H]3CN(c4ccc5c(c4)NC(=O)CS5)C(=O)O3)c2n1` (racemic) [Example 122, 6-{(RS)-5-[(RS)-3-hydroxy-5-(6-methoxy-[1,5]naphthyridin-4-yl)-pentyl]-2-oxo-oxazolidin-3-yl}-4H-benzo[1,4]thiazin-3-one] the value was at most 0.063 µg/mL; for `COc1ccc2nccc(CCC[C@@H](O)C[C@@H]3CN(c4ccc5c(c4)OCCO5)C(=O)O3)c2n1` (racemic) [Example 123, (RS)-3-(2,3-dihydro-benzo[1,4]dioxin-6-yl)-5-[(RS)-2-hydroxy-5-(6-methoxy-[1,5]naphthyridin-4-yl)-pentyl]oxazolidin-2-one], at most 0.063 µg/mL.
